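Results reflect a 48-hour exposure of cells in 96-well plates to compound at five concentrations. Abbreviation: GI50, concentration required for 50% inhibition of growth. Definition used: TGI = concentration required for complete inhibition of growth.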
What was measured:
Experiment in all cases: NCI tumour cell line growth inhibition, 48 h
[1] = tested on: SF-539 CNS
[2] = tested on: SF-295 CNS
[3] = tested on: UACC-257 melanoma
[4] = tested on: UO-31 renal
[5] = tested on: RPMI-8226 leukemia
[6] = tested on: UACC-62 melanoma
[7] = tested on: IGROV1 ovarian
[8] = tested on: NCI-H522 lung
[9] = tested on: HCT-116 colon
[10] = tested on: HS 578T breast

Structure (SMILES)	TGI [1]	TGI [2]	TGI [3]	TGI [4]	TGI [5]	TGI [6]	TGI [7]	TGI [8]	TGI [9]	GI50 [1]	GI50 [2]	GI50 [3]	GI50 [4]	GI50 [5]	GI50 [6]	GI50 [7]	GI50 [8]	GI50 [10]	TGI [10]	GI50 [9]
COc1nc2nccc-2c2occn12	> 100 µM	> 100 µM	> 100 µM	> 100 µM	> 100 µM	> 100 µM	> 100 µM	> 100 µM	> 100 µM											
COc1c(N2CCN(CN3C(=O)C(=Nc4ccc(S(=O)(=O)Nc5ncccn5)cc4)c4ccccc43)C(C)C2)c(F)cc2c(=O)c(C(=O)O)cn(C3CC3)c12 (stereo not drawn)	> 50 µM	> 50 µM	> 50 µM	> 50 µM	> 50 µM	> 50 µM	> 50 µM	> 50 µM	> 50 µM	> 50 µM	> 50 µM	47 µM	40.1 µM	28.7 µM	36.9 µM	19.2 µM	> 50 µM	> 50 µM	> 50 µM	18.2 µM
CC(=O)c1cc([N+](=O)[O-])ccc1OCC(=O)O	> 100 µM	> 100 µM	> 100 µM	> 100 µM	> 100 µM	> 100 µM	> 100 µM	> 100 µM	> 100 µM											
CN=S(=O)(c1ccccc1)c1ccccc1	> 100 µM	> 100 µM	> 100 µM	> 100 µM	> 100 µM	> 100 µM	> 100 µM	> 100 µM	> 100 µM											
O=NNc1nc(-c2cccnc2)nc2ccccc12	> 100 µM	> 100 µM	> 100 µM	32.8 µM		> 100 µM	> 100 µM	> 100 µM	> 100 µM										> 100 µM	
Cc1cccc(C(C)C)c1NC(=O)C(=O)CC(=O)c1c(C)n([O-])c2ccccc2[n+]1=O	83.8 µM	> 100 µM	48 µM	> 100 µM	72.1 µM	42.4 µM	> 100 µM	53.9 µM	> 100 µM											
CC(C)C1CC(O)O[C@@H]([C@@H](C)[C@H]2CC(=O)[C@@H]3[C@@H]4[C@@H](O)[C@H](O)[C@H]5[C@@H](O)[C@H](O)CC[C@]5(C)[C@H]4CC[C@]23C)C1 (stereo partly drawn)	> 100 µM	> 100 µM	> 100 µM	> 100 µM		> 100 µM	> 100 µM	> 100 µM	> 100 µM											
N#CC(C(=O)C(=O)NCCCNC(=O)C(=O)C(C#N)c1ccccc1)c1ccccc1 (stereo not drawn)	> 100 µM	> 100 µM	> 100 µM	> 100 µM	> 100 µM	> 100 µM	> 100 µM	> 100 µM	> 100 µM											
O=c1cc(-c2ccccc2)c2cc3c(=O)ccoc3cc2o1	> 100 µM	> 100 µM	> 100 µM	> 100 µM	> 100 µM	> 100 µM			> 100 µM											
CSc1nc2c(nc(N)n2C2OCC(O)C(O)C2O)c(=O)n1C (stereo not drawn)	> 100 µM	> 100 µM	> 100 µM	> 100 µM		> 100 µM	> 100 µM	> 100 µM	> 100 µM											
COc1cc(CNc2ccc(C(C)C)cc2)cc(OC)c1OC	35.8 µM		61.7 µM	45.3 µM	38.2 µM	33 µM	70 µM	24 µM	23.6 µM								11.1 µM			
CC1=C(O)C(=O)C2C(=O)C1C(C)C2c1ccc(Cl)cc1 (stereo not drawn)	> 100 µM	> 100 µM		> 100 µM	> 100 µM	> 100 µM	> 100 µM	> 100 µM												
N#C/C(=C\c1cccc(O)c1)C(N)=O	> 100 µM	> 100 µM	> 100 µM	> 100 µM	> 100 µM	> 100 µM	> 100 µM	> 100 µM	> 100 µM											
CC1S(=O)(=O)OCCOS1(=O)=O	> 100 µM	> 100 µM	> 100 µM	> 100 µM	> 100 µM	> 83.5 µM	> 100 µM	> 100 µM	> 100 µM											
COc1cccc(C(=O)C2C(=O)N(C)CCc3ccccc32)c1OC (stereo not drawn)			> 100 µM	> 100 µM	> 100 µM	> 100 µM	> 100 µM	> 100 µM	> 100 µM											
CC/C=C\C/C=C\C/C=C\CCCCCCCC(=O)OCC	> 100 µM	> 100 µM	> 100 µM	> 100 µM	> 100 µM	> 100 µM	> 100 µM		> 100 µM											
Cc1ccc(NC(=O)/C(=N\Nc2ccc([N+](=O)[O-])cc2[N+](=O)[O-])C2C(=O)NC(=O)NC2=O)cc1	90.9 µM	> 100 µM	> 100 µM	> 100 µM	> 100 µM	97.6 µM	> 100 µM	> 100 µM	> 100 µM											
CCOC(=O)NN1C(=O)C(=P(c2ccccc2)(c2ccccc2)c2ccccc2)C(C(=O)OCC)=C1C	> 100 µM	> 100 µM	> 100 µM	> 100 µM	> 100 µM	> 100 µM	> 100 µM	> 100 µM	> 100 µM											
Fc1ccc2[nH]c3c(NCCCN4CCOCC4)ncnc3c2c1	62.7 µM	> 100 µM		> 100 µM	> 100 µM	40.4 µM	> 100 µM		> 100 µM	21.3 µM	61.2 µM		33 µM	31.4 µM	17.5 µM	49.1 µM		41.9 µM	> 100 µM	33.7 µM
CCOC(=O)C(=O)Nc1c(C)cccc1C	> 100 µM	> 100 µM	> 100 µM	> 100 µM	> 100 µM	> 100 µM	> 100 µM		> 100 µM											
COc1cc([C@@H]2c3cc4c(cc3[C@@H](NC(=O)c3ccccc3)C3COC(=O)[C@@H]32)OCO4)cc(OC)c1O (stereo partly drawn)	24.8 µM	> 100 µM	48.1 µM	23.5 µM	21.8 µM	11.6 µM	25.7 µM	26.2 µM	28.8 µM											
COc1ccc2oc3cccc(NCCN(C)C)c3c(=O)c2c1	28.1 µM	29.9 µM	30.8 µM	21.4 µM	33 µM	26.6 µM	31.2 µM		19.8 µM											

Structure (SMILES)	TGI [1]	TGI [2]	TGI [3]	TGI [4]	TGI [5]	TGI [6]	TGI [7]	TGI [8]	TGI [9]	GI50 [1]	GI50 [2]	GI50 [3]	GI50 [4]	GI50 [5]	GI50 [6]	GI50 [7]	GI50 [8]	GI50 [10]	TGI [10]	GI50 [9]
O=C(CSC(=S)N1CCOCC1)Nc1nc2c(s1)CCCC2	> 100 µM	> 100 µM	> 100 µM	> 100 µM	> 100 µM		> 100 µM	70.2 µM	> 100 µM											
O=C1/C(=C/c2ccc(O)cc2)COc2ccc(-c3ccccc3)cc21	27 µM	24.7 µM		23.4 µM	7.68 µM	25.6 µM	20.8 µM	16.4 µM	14.4 µM	13.9 µM	6.8 µM		4.64 µM	1.4 µM	12.7 µM	6.12 µM	2.93 µM	3.79 µM	24.3 µM	3.38 µM
O=C(CCl)N1c2ccccc2Sc2c1ccc1ccccc21	4.81 µM	6.53 µM	5.6 µM	3.8 µM	13.1 µM	4.9 µM		3.46 µM	2.78 µM	2.08 µM	2.38 µM	2.24 µM	1.71 µM	3.08 µM	2.07 µM		1.76 µM	4.17 µM	43.9 µM	1.45 µM
NNC(=O)CCC(=O)NC1C2CC3CC(C2)CC1C3 (stereo not drawn)	> 100 µM	> 100 µM	> 100 µM	> 100 µM	> 100 µM	> 100 µM	> 100 µM	> 100 µM	> 100 µM											
COc1cc(/C=C/C(=O)c2sc(Nc3ccccc3)nc2C)ccc1O	> 100 µM	> 100 µM	> 100 µM	> 100 µM	> 100 µM	> 100 µM	> 100 µM	> 100 µM												
COc1ccc(O)c(C#N)c1C#N	> 100 µM	> 100 µM	> 100 µM	> 100 µM	> 100 µM	> 100 µM	> 100 µM	> 100 µM	> 100 µM											
CCCCCCCCCc1cc(=O)c2ccc(O)cc2o1	> 100 µM	> 100 µM	> 100 µM	> 100 µM	> 100 µM	> 100 µM	> 100 µM	> 100 µM	> 100 µM											
CC(=O)n1c2ccccc2c2nc3nc(Oc4ccc(C)cc4)c4ccccc4c3cc21	> 100 µM	> 100 µM	> 100 µM	> 100 µM	> 100 µM	> 100 µM	> 100 µM	> 100 µM	> 100 µM											
CN(C)CCCN1CCc2c([nH]c3ccccc23)C1c1cccnc1 (stereo not drawn)	> 100 µM	> 100 µM	> 100 µM	> 100 µM	> 100 µM	> 100 µM	> 100 µM	> 100 µM	> 100 µM											
Clc1nc(Cl)c2ncn(Cc3ccc(COc4cccc(OCc5ccc(Cn6cnc7c(Cl)nc(Cl)nc76)cc5)c4)cc3)c2n1	> 100 µM	> 100 µM	> 100 µM	> 100 µM	> 100 µM	> 100 µM	> 100 µM	> 100 µM		> 100 µM	98.4 µM	24.9 µM	51.5 µM	9.5 µM	34.7 µM	69.4 µM	61.9 µM	54.1 µM	> 100 µM	
O=C(O)c1cc(=O)c2[nH]c3ccccc3c2s1		> 100 µM	> 100 µM	> 100 µM	> 100 µM	> 100 µM	> 100 µM	> 100 µM												
CC(C)NC(=O)OCCS(=O)c1c(Cl)c(Cl)nn1C (stereo not drawn)	> 100 µM	> 100 µM		> 100 µM	> 100 µM	67.7 µM	> 100 µM	41.1 µM	> 100 µM										> 100 µM	
Cc1cc(=O)oc2cc3c(cc12)Oc1ccccc1O3	56.7 µM	> 100 µM	> 100 µM	> 100 µM	> 100 µM	> 100 µM	> 100 µM		> 100 µM											
CCCCCCCCCCCCCCCC(=O)OCC1OC(n2c(O)c(N=NC(N)=S)c3ccc([N+](=O)[O-])cc32)C(OC(C)=O)C1OC(C)=O (stereo not drawn)	> 100 µM	> 100 µM	> 100 µM		> 100 µM	> 100 µM	> 100 µM	> 100 µM	> 100 µM											
NC(C(=O)[O-])C(=O)[O-].NC1CCCCC1N.[Pt+4]	> 100 µM	32.5 µM	> 100 µM	> 100 µM	19.2 µM	54.5 µM	> 100 µM		26.6 µM	5.36 µM	2.27 µM	> 100 µM	52.7 µM	0.957 µM	2.39 µM	16.3 µM		> 100 µM	> 100 µM	2.49 µM
O=C1C2=C(c3ccccc31)C(c1ccccc1)NC(=S)N2 (stereo not drawn)	46.3 µM	> 100 µM	> 100 µM	> 100 µM	> 100 µM	> 100 µM	> 100 µM	> 100 µM	> 100 µM											
COc1ccc(NC(=O)c2cc(OC)c(OC)c(OC)c2)cc1	> 100 µM	> 100 µM	> 100 µM	> 100 µM	> 100 µM	> 100 µM	> 100 µM	> 87.4 µM	> 100 µM											
O=C(CN1CCN(c2ccccc2)CC1)N1CCc2c([nH]c3ccccc23)C1c1cccnc1 (stereo not drawn)	57.8 µM	84.8 µM	> 100 µM	> 100 µM	> 100 µM	> 100 µM	> 100 µM	> 85.7 µM	21.3 µM											
COc1cccc(C2c3cc4c(cc3OC(O)(CO)C2C(=O)O)OCO4)c1 (stereo not drawn) (tested in a mixture with another compound)	> 100 µM	> 100 µM	> 100 µM	> 100 µM	> 100 µM	> 100 µM	> 100 µM		> 100 µM											
CC(C)CC1=[N+]=C(NC#N)N=C(CCC(=O)Nc2ccccc2[N+](=O)[O-])C1	> 100 µM	> 100 µM	> 100 µM	> 100 µM	> 100 µM	> 100 µM	> 100 µM	> 100 µM	> 100 µM											
Nc1nc2c(c(=O)[nH]1)CN(c1ccc(S(N)(=O)=O)cc1)CN2		> 100 µM	> 100 µM	> 100 µM	> 100 µM	> 100 µM	> 100 µM	> 100 µM	> 100 µM										> 100 µM	

— PubChem BioAssay (NCI)
